Laboratory results taken from patent US20030083374A1, “NAALADase inhibitors useful as pharmaceutical compounds and compositions” (priority 1998, published 2003).

Test system: not listed separately
Assay: Example 14: each of the Examples and in vitro and in vivo assays described above
Details: each of their respective assays and Examples

With `O=C(O)CCC(CCCS)C(=O)O` (stereo not shown) [2-(3-sulfanylpropyl)pentanedioic acid] the “in vitro or in vivo activity” value was “exhibit in vitro or in vivo activity”.
With `CC(S)CC(CCC(=O)O)C(=O)O` (stereo not shown) [2-(2-sulfanylpropyl)pentanedioic acid] the “in vitro or in vivo activity” value was “exhibit in vitro or in vivo activity”.

Test system: LNCaP cells
Assay: not given
Details: as the concentration increased; cited from earlier work

In the case of `N[C@@H](Cn1oc(=O)[nH]c1=O)C(=O)O` [quisqualic acid, reference compound], the LNCaP cell proliferation is listed as “decreased significantly”.

Test system: cortical cell cultures
Assay: in vitro assay of NAALADase inhibitors on ischemia in cortical cell cultures
Type: cell-based
Details: concentration required to cause a 50% reduction in glutamate toxicity following an ischemic insult (potassium cyanide and 2-deoxyglucose)
Source text: Some results are set forth in U.S. Pat. Nos. 5,672,592, 5,795,877, 5,863,536, 5,880,112 and 5,902,817, allowed U.S. patent application Ser. Nos. 08/825,997, 08/833,628, 08/842,360 and 08/899,319 for which the issue fees have been paid, the entire contents of which patents and applications are herein incorporated by reference. Other results are provided below in TABLE III.

Point of comparison: `CCCCC(S)CC(CCC(=O)O)C(=O)O` (stereo not shown) [2-(2-sulfanylhexyl)pentanedioic acid], EC50 1000 nM. Against it:
- O=C(O)CCC(CCCS)C(=O)O (stereo not shown) [2-(3-sulfanylpropyl)pentanedioic acid] — 77-fold lower, 13 nM
- O=C(O)CCC(CP(=O)(O)CC(CCC(=O)O)C(=O)O)C(=O)O (stereo not shown) — 25000-fold lower, 0.04 nM
- O=C(O)CCC(CP(=O)(O)CNS(=O)(=O)c1ccccc1)C(=O)O (stereo not shown) — within 1.5-fold, 792 nM
- COc1ccc(NCP(=O)(O)CC(CCC(=O)O)C(=O)O)cc1 (stereo not shown) — 100-fold lower, 10 nM
- O=C(O)CCC(CCCCS)C(=O)O (stereo not shown) [2-(4-sulfanylbutyl)pentanedioic acid] — 28-fold lower, 36 nM
- O=C(O)CCC(CP(=O)(O)CNc1ccc(F)cc1)C(=O)O (stereo not shown) — 330-fold lower, 3 nM
- O=C(O)CCC(CP(=O)(O)CNCc1ccccc1)C(=O)O (stereo not shown) — 1100-fold lower, 0.9 nM
- O=C(O)CCC(CC(S)c1ccccc1)C(=O)O (stereo not shown) [2-(2-phenyl-2-sulfanylethyl)pentanedioic acid] — 34-fold lower, 29 nM
- CC(CS)C(CCC(=O)O)C(=O)O (stereo not shown) [2-(1-methyl-2-sulfanylethyl)pentanedioic acid] — 7.1-fold lower, 141 nM
- CCC(CS)C(CCC(=O)O)C(=O)O (stereo not shown) [2-(1-ethyl-2-sulfanylethyl)pentanedioic acid] — 16-fold lower, 62 nM
- O=C(O)CCC(CP(=O)(O)CC(CCC(=O)OCc1ccccc1)C(=O)OCc1ccccc1)C(=O)O (stereo not shown) — far lower, 0.01 nM
- O=C(O)CCC(CP(=O)(O)C(NCc1ccccc1)c1ccccc1)C(=O)O (stereo not shown) — 1000-fold lower, 1 nM
- CC(C)(C)c1ccc(NCP(=O)(O)CC(CCC(=O)O)C(=O)O)cc1 (stereo not shown) — 29-fold lower, 35 nM
- O=C(O)CCC(CP(=O)(O)CNc1ccccc1)C(=O)O (stereo not shown) — 83-fold lower, 12 nM
- Cc1ccc(NCP(=O)(O)CC(CCC(=O)O)C(=O)O)cc1 (stereo not shown) — 91-fold lower, 11 nM
- O=C(O)CCC(CP(=O)(O)CN1C(=O)c2ccccc2C1=O)C(=O)O (stereo not shown) — 77-fold lower, 13 nM
- CC(CS)CC(CCC(=O)O)C(=O)O (stereo not shown) [2-(3-sulfanyl-2-methylpropyl)pentanedioic acid] — 12-fold lower, 80 nM
- O=C(O)CCC(CCSSCCC(CCC(=O)O)C(=O)O)C(=O)O (stereo not shown) [2-[2-[(3,5-dicarboxypentyl)dithio]ethyl]pentanedioic acid] — 59-fold lower, 17 nM

Test system: rat MCAO model of stroke
Assay: in vivo assay on brain injury following MCAO
Set-up: species or system Sprague-Dawley rats
Details: 30 mg/kg IV bolus + 6 mg/kg/hr IV infusion 4 hours, 120 minutes post-occlusion
Method: The control group received Hepes buffered saline.
Four drug treated groups received Compound 1. For each rat, the treatment was initiated at 60 minutes post middle cerebral artery occlusion (MCAO) by an IV bolus injection which was immediately followed by IV infusion for 4 hours at rate of 0.5 ml/hr. Group 1 (n=9) received a dose of 100 mg/kg IV bolus followed by 20 mg/kg/hr IV infusion for 4 hours. Group 2 (n=11) received a dose of 30 mg/kg IV bolus followed by 6 mg/kg/hr IV infusion for 4 hours. Group 3 (n=9) received a dose of 10 mg/kg IV bolus followed by 2 mg/kg/hr IV infusion for 4 hours. Group 3 rats were also treated at 120 minutes, 180 minutes and 360 minutes post-occlusion. Group 4 (n=8) received a dose of 3 mg/kg IV bolus followed by […] IV infusion for 4 hours.
Two additional drug treated groups received 2-(3-sulfanylpropyl)pentanedioic acid. For each rat, the treatment was initiated at 120 minutes post middle cerebral artery occlusion (MCAO) by an IV bolus injection which was immediately followed by IV infusion for 4 hours at rate of 0.5 ml/hr. Group 5 received a dose of 30 mg/kg IV bolus followed by 6 mg/kg/hr IV infusion for 4 hours. Group 6 received a dose of 10 mg/kg IV bolus followed by 2 mg/kg/hr IV infusion.
Twenty two hours following the reperfusion, the rats were euthanized and their brains were removed. Seven coronal sections (2 mm thick) were taken and stained with 1% solution of 2,3,5-triphenyl-tetraxolium chloride (TTC) for 20 minutes and then fixed in 10% formalin. The anterior and posterior surface of the most rostral brain section and the posterior surface of each of the remaining 6 sections were imaged. The quantification of infarct size of each brain was obtained using a computer aided-digital imaging analysis system (LOATS). The brain regions completely lacking TTC-staining were characterized as representative of infarcted tissue. The total infarct volume for each rat was calculated by numeric integration of the respective sequential brain areas.
Male Sprague-Dawley rats (260-320 g) were used. They were individually housed and allowed free access to food and water. Two days prior to the experiment, they were given restricted food if necessary to maintain the body weight Each rat received two surgeries: femoral vein cannulation for IV infusion and MCAO. During surgeries, the rat was anesthetized with 1.5% halothane delivered in oxygen via an inhalation mask. The body temperature was monitored and regulated at normothermic level using a homeothermic heating system. First, a catheter was inserted into the left femoral vein. Thirty minutes later, the rat was reanesthetized for MCAO surgery. The MCAO was achieved using the endovascular suture method described by Long et al., Stroke, Vol. 20, pp. 84-91 (1989). Specifically, the right external carotid artery (ECA) was exposed, coagulated and transected. A 3-0 monofilament nylon suture with a blunted tip and a coat of 0.05% Poly-1-Lysine was introduced into the proximal stump of the ECA via an arteriotomy. It was advanced 22 mm from the carotid bifurcation until it lodged in the proximal region of the anterior cerebral artery, thereby occluding the origin of the MCA. The rats were allowed to wake up; 2 hours later, the rats were reanesthetized for reperfusion, during which the nylon suture was retracted to the stump of the ECA allowing blood recirculation to the MCA.

In the case of `O=C(O)CCC(CCCS)C(=O)O` (stereo not shown) [2-(3-sulfanylpropyl)pentanedioic acid], the “infarct size vs. vehicle treated rats” value is reported as “significantly smaller infarct size”.

Same assay, conditions: TABLE IV(b); dose 10 mg/kg, 120 minutes post MCAO

In the case of `O=C(O)CCC(CCCS)C(=O)O` (stereo not shown) [2-(3-sulfanylpropyl)pentanedioic acid], the “% Protect” value is reported as 21%.

Same assay, conditions: TABLE IV(b); dose 30 mg/kg, 120 minutes post MCAO

With `O=C(O)CCC(CCCS)C(=O)O` (stereo not shown) [2-(3-sulfanylpropyl)pentanedioic acid] the “% Protect” value was 52%.
